Several values for one entry are separate records, joined by “and”; a condition that tells them apart may be missing. Equal entries are not always repeated. Entries after “also recorded” stand apart in the source; their conditions may differ. Where two headings read alike, the source gives them in different places. Values belong to the molecule of their own block, whether it stands above or below them. Bridge positions count the residues as written; N and C are the ends. Peptide text beside a SMILES is read from it. I, II: the chains in the order shown.
Assays:
[1] = system: human buccal tissue model
Procedure: (§1) A human buccal tissue model was used for in vitro testing of the permeability of a number of disulphide-linked homodimers.
(§2) Human oral mucosa tissue models were prepared in accordance with the standard protocols of a commercial reagent supplier (EpiOral™, MatTek Corporation; for details see http://www.mattek.com/epioral/applications/drug-delivery; see also for example Thakur et al., Drug Development and Industrial Pharmacy, 2007, 33(5), pages 513-52). In brief, the tissue models were prepared in tissue culture wells of 24-well plates containing an inner well (insert) with a microporous membrane base coated with an extracellular matrix preparation, on which the human mucosal cells were seeded. The inner well was submerged in the reagent supplier's recommended serum free culture medium which permeates through the microporous membrane to feed the cells in the insert. The cells were submerged in the culture medium for a few days, after insertion of the inner wells into the tissue culture wells and permeation of the culture medium into the inner wells, in accordance with the reagent supplier's recommendation. The inserts containing the developing tissues were then elevated to the air/liquid interface which induces stratification and differentiation. The resulting human buccal cell cultures were stratified, three dimensional tissues comprising 25-30 cell layers, non-cornified with nucleated cells extending up to the apical surface and with histology similar to that of native buccal tissue.
(§3) The buccal tissue culture inserts were transferred from the original tissue culture 24-well plates (maintained at 4° C. in sealed bags containing 5% CO2) under sterile conditions into wells of a fresh 24-well plate containing 1.0 ml of the reagent supplier's recommended serum free medium pre-warmed to 37° C. The plate was then incubated in a humidified incubator at 37° C. in a 5% CO2 atmosphere for one hour as a pre-equilibration procedure prior to dosing.
(§4) After removal of the pre-equilibrated plate from the incubator, any culture medium over the surface of the tissue was carefully removed and replaced with 100 μL of appropriately diluted homodimer solution in reagent supplier's recommended serum free culture medium (stock homodimer-containing medium). The plate was then incubated for a further 30 minutes at 37° C. in a 5% CO2 atmosphere. The plate was removed from the incubator and supernatant samples were taken from above the cells, inside the insert, and analysed by HPLC. The main peak areas for each tested peptide in the supernatants were compared to the corresponding peak areas for the tested peptides in the relevant pre-incubation samples of the stock homodimer-containing medium.

[2] = system: human buccal tissue model; experiment: Human buccal tissue permeability screening (EpiOral tissue model, HPLC of supernatant); settings: for Transmissibility (%): 30 minutes at 37° C.; for Peak Area by HPLC of Peptides in Solution, Post-overlay: supernatant above cells after 30 minutes at 37° C.
Procedure: as §1, §2, §3, §4

[3] = system: human diabetic patients; experiment: Therapeutic efficacy testing in human diabetic patients (HbA1c); format: in vivo; settings: for HbA1c % Change: day 35 vs baseline; for HbA1c % Baseline (Mean ± sd.): before first dose
Procedure: Homodimer C was tested in human clinical trials to determine therapeutic efficacy of transmucosal delivery. Both intraoral (sublingual) delivery and peroral delivery were tested. Two further groups of patients were administered an injectable preparation of Homodimer C to allow a comparison of the effects of transmucosal delivery to the effects of injection delivery.
Diabetic patients treated with oral anti-diabetic drugs (e.g. sulfonylurea type drugs) or insulin were recruited and randomised to four patient groups: two injectable peptide groups (Groups 1 and 2) and to two oral peptide dosage groups, for delivery of Homodimer C either by sublingual administration (Group 3) or via enteric coated capsules (Group 4).
Each group was administered five doses of Homodimer C. Homodimer C was administered once weekly (at days 0, 7, 14, 21 and 28 of the study) at a dose of 2 mg (which equates to approximately 0.03 mg/kg for a notional 70 kg subject) for all four groups. The homodimer injections were intramuscular, generally into the upper arm of the subjects. The patients' current treatment was not withdrawn during the study. HbA1c levels were determined in advance of the first dose and at day 35 of the study.

[4] = Table 1, stock homodimer-containing medium before incubation

Peak Area by HPLC of Peptides in Solution, Post-overlay [1]: 4439 | Peak Area by HPLC of Peptides in Solution, Pre-overlay [1]: 5398 | Transmissibility (%) [1]: 17.7% | transmissibility (absorption) across the human buccal tissue surface, in words [1]: only poor transmissibility
SMILES: CC[C@H](C)[C@H](NC(=O)[C@H](CC(N)=O)NC(=O)[C@@H](N)CSSC[C@H](N)C(=O)N[C@@H](CC(N)=O)C(=O)N[C@H](C(=O)N[C@@H](Cc1ccc(O)cc1)C(=O)N1CCC[C@H]1C(=O)N[C@@H](CO)C(=O)N[C@@H](CC(=O)O)C(=O)N[C@@H](CO)C(=O)N[C@@H](Cc1ccc(O)cc1)C(=O)N[C@H](C(=O)N[C@@H](CC(N)=O)C(=O)N[C@@H](Cc1ccc(O)cc1)C(=O)N[C@@H](CC(N)=O)C(=O)N[C@@H](CCC(N)=O)C(=O)N[C@@H](CCCCN)C(=O)N[C@@H](Cc1ccccc1)C(=O)N[C@@H](CCCCN)C(=O)N[C@@H](CC(=O)O)C(=O)O)[C@@H](C)O)[C@@H](C)CC)C(=O)N[C@@H](Cc1ccc(O)cc1)C(=O)N1CCC[C@H]1C(=O)N[C@@H](CO)C(=O)N[C@@H](CC(=O)O)C(=O)N[C@@H](CO)C(=O)N[C@@H](Cc1ccc(O)cc1)C(=O)N[C@H](C(=O)N[C@@H](CC(N)=O)C(=O)N[C@@H](Cc1ccc(O)cc1)C(=O)N[C@@H](CC(N)=O)C(=O)N[C@@H](CCC(N)=O)C(=O)N[C@@H](CCCCN)C(=O)N[C@@H](Cc1ccccc1)C(=O)N[C@@H](CCCCN)C(=O)N[C@@H](CC(=O)O)C(=O)O)[C@@H](C)O [Homodimer A] (I: H-CNIYPSDSYTNYNQKFKD-OH / II: H-CNIYPSDSYTNYNQKFKD-OH; disulfide I:1-II:1; N-terminus and C-terminus assumed)

transmissibility (absorption) across the human buccal tissue surface, in words [2]: did not demonstrate any transmissibility | Transmissibility (%) ([2]; Table 1): 0% | Peak Area by HPLC of Peptides in Solution, Pre-overlay [2, 4]: 2023 | Peak Area by HPLC of Peptides in Solution, Post-overlay ([2]; Table 1): 2396
SMILES: CC(C)C[C@H](NC(=O)CNC(=O)[C@H](CCCNC(=N)N)NC(=O)[C@H](CC(C)C)NC(=O)[C@@H](N)CSSC[C@H](N)C(=O)N[C@@H](CC(C)C)C(=O)N[C@@H](CCCNC(=N)N)C(=O)NCC(=O)N[C@@H](CC(C)C)C(=O)N[C@@H](CC(C)C)C(=O)N1CCC[C@H]1C(=O)N[C@@H](CC(=O)O)C(=O)N[C@@H](Cc1ccc(O)cc1)C(=O)O)C(=O)N[C@@H](CC(C)C)C(=O)N1CCC[C@H]1C(=O)N[C@@H](CC(=O)O)C(=O)N[C@@H](Cc1ccc(O)cc1)C(=O)O [Homodimer B, reference compound] (I: H-CLRGLLPDY-OH / II: H-CLRGLLPDY-OH; disulfide I:1-II:1; N-terminus and C-terminus assumed)

Transmissibility (%) ([2]; Table 1): 94.1% | Peak Area by HPLC of Peptides in Solution, Pre-overlay [2, 4]: 4142 | Peak Area by HPLC of Peptides in Solution, Post-overlay ([2]; Table 1): 243 | Transmissibility (%) ([2]; Table 2, triplicate cultures): 93.3% and 84.5% and 100% | Peak Area by HPLC of Peptides in Solution, Pre-overlay ([2]; Table 2, triplicate cultures, stock medium before incubation): 4142
SMILES: CC(C)C[C@H](NC(=O)[C@@H]1CCCN1C(=O)[C@H](Cc1ccc(O)cc1)NC(=O)[C@H](CO)NC(=O)[C@H](CC(N)=O)NC(=O)[C@H](Cc1ccc(O)cc1)NC(=O)[C@H](CCC(N)=O)NC(=O)[C@H](CCC(N)=O)NC(=O)[C@@H](N)CSSC[C@H](N)C(=O)N[C@@H](CCC(N)=O)C(=O)N[C@@H](CCC(N)=O)C(=O)N[C@@H](Cc1ccc(O)cc1)C(=O)N[C@@H](CC(N)=O)C(=O)N[C@@H](CO)C(=O)N[C@@H](Cc1ccc(O)cc1)C(=O)N1CCC[C@H]1C(=O)N[C@@H](CC(C)C)C(=O)N[C@H](C(=O)O)[C@@H](C)O)C(=O)N[C@H](C(=O)O)[C@@H](C)O [Homodimer C] (I: H-CQQYNSYPLT-OH / II: H-CQQYNSYPLT-OH; disulfide I:1-II:1; N-terminus assumed)
efficacy of intraoral (sublingual) or peroral routes compared with parenteral (injection) ([3]; 2 mg once weekly x5): significantly more effective | HbA1c % Change ([3]; Group 1, intramuscular injection 2 mg once weekly x5, insulin only, P = 0.045): −0.60% | HbA1c % Day 35 (Mean ± sd.) ([3]; Group 1, intramuscular injection 2 mg once weekly x5, previous treatment insulin only, n = 17): 10.74 ± 2.0% | HbA1c % Baseline (Mean ± sd.) ([3]; Group 1, intramuscular injection, previous treatment insulin only, n = 17): 11.34 ± 2.6% | HbA1c % Day 35 (Mean ± sd.) ([3]; Group 2, intramuscular injection 2 mg once weekly x5, oral anti-diabetics and/or insulin, n = 18): 9.57 ± 1.79% | HbA1c % Change ([3]; Group 2, intramuscular injection 2 mg once weekly x5, P = 0.033): −0.75% | HbA1c % Baseline (Mean ± sd.) ([3]; Group 2, intramuscular injection, previous oral anti-diabetics and/or insulin, n = 18): 10.32 ± 2.24% | HbA1c % Day 35 (Mean ± sd.) ([3]; Group 3, sublingual 2 mg once weekly x5, n = 7): 7.85 ± 2.03% | HbA1c % Change ([3]; Group 3, sublingual 2 mg once weekly x5, P = 0.005): −1.33% | HbA1c % Baseline (Mean ± sd.) ([3]; Group 3, sublingual, previous oral anti-diabetics and/or insulin, n = 7): 9.18 ± 2.64% | HbA1c % Day 35 (Mean ± sd.) ([3]; Group 4, enteric coated capsule (peroral) 2 mg once weekly x5, n = 7): 8.12 ± 1.04% | HbA1c % Change ([3]; Group 4, enteric coated capsule (peroral) 2 mg once weekly x5, P = 0.016): −1.18% | HbA1c % Baseline (Mean ± sd.) ([3]; Group 4, enteric coated capsule (peroral), previous oral anti-diabetics and/or insulin, n = 7): 9.30 ± 1.65% | side-effects in human patients ([3]; doses of approximately 2 mg (approximately 0.03 mg/kg)): without significant undesirable side-effects | mean HbA1c levels at day 35 relative to mean baseline, in words ([3]; each of Groups 1-4): significantly reduced | transmissibility (absorption) across the human buccal tissue surface, in words [2]: transmitted efficiently; also recorded: efficient uptake

Reference: US20210060118A1, “THERAPEUTIC HOMODIMER AND USES THEREOF” (priority 2014, published 2021)
